Experiments:
CHCl3 arrhythmia = test: inhibition of CHCl3 arrhythmia on mice, i.p.; format: in vivo
Text: (§1) The antiarrhythmic effectiveness of DHCN and THCN was investigated on mice and rats.

[1] = tested on: heart rate of spontaneously hypertonic rats; test: chronological course of heart rate of spontaneously hypertonic rats; format: in vivo, rat; parameters: heart rate at time t: unit not given here
Text: (§2) The blood pressure-lowering action of the compound THCN according to the present invention and of DHCN was investigated on spontaneously hypertonic rats after oral administration and compared with that of ajmalicine. The method thereby used for the measurement of the systolic blood pressure and of the heart rate on rats is described in Arzneimittel-Forschung, 18, 1285-1287/1968. Before commencement of the experiments, the animals were familiarised with the measurement procedure.
(§3) In a further series of experiments, the chronological course of the blood pressure lowering was investigated. For this purpose, spontaneously hypertonic rats were treated with 10 mg./kg. DHCN and with 5 or 10 mg./kg. THCN per os and in each case 6 or 12 animals of the treated group were measured at definite times after the treatment.

[2] = tested on: heart rate of spontaneously hypertonic rats; test: heart rate of spontaneously hypertonic rats after oral administration; format: in vivo, rat; settings: 2 h
Text: as §2
(§4) In a first series of experiments, the systolic blood pressure and the heart rate were investigated 2 hours after the oral administration of the test substances in the form of their hydrochlorides. The substances were suspended in 0.2% agar and administered in a volume of 10 ml./kg. It follows therefrom that all three substances lower the blood pressure in a dosage-dependent manner.

[3] = tested on: stereotypy brought about by apomorphine; test: potentiation of apomorphine stereotypy in mice; format: in vivo; settings: oral, same dosage range (10 to 20 mg/kg)
mice = test: acute toxicity, LD50 (Litchfield and Wilcoxon) on mice; format: in vivo; settings: i.v., i.p. and oral LD50, mice
Text: (§5) The toxicity of the compounds according to the present invention can be seen from the LD50 values given in the following Table 8 for intravenous, intraperitoneal and oral administration.

[4] = as above; format: in vivo; settings: mouse, in vivo, mice
Text: as §5

[5] = tested on: systolic blood pressure of spontaneously hypertonic rats; test: chronological course of blood pressure decrease in spontaneously hypertonic rats; format: in vivo, rat
Text: as §2, §3

[6] = tested on: systolic blood pressure of spontaneously hypertonic rats; test: systolic blood pressure of spontaneously hypertonic rats after oral administration; format: in vivo, rat; settings: for systolic blood pressure, subsequent value / systolic blood pressure, Δ / systolic blood pressure, Δ %: 2 h
Text: as §2, §4

[7] = tested on: blood pressure, vessels, central nervous system; test: general pharmacological action (statement in words); settings: in vivo
circulatory disturbances = settings: known therapy of circulatory disturbances; cited from earlier work
[8] = tested on: aconitine-induced arrythmias; test: protection against aconitine-induced arrhythmias in urethane-narcotised rats, i.v.; format: in vivo; settings: 2 to 5 mg/kg (THCN)
Text: as §1

[9] = tested on: heart rate of spontaneously hypertonic rats; test: chronological course of heart rate of spontaneously hypertonic rats; format: in vivo, rat; parameters: unit not given here; settings: 20 mg/kg, 4 h.
[10] = 4 mg/kg p.o., dihydrocorynantheine
[11] = 8.6 mg/kg p.o., dihydrocorynantheine
[12] = 18 mg/kg p.o., dihydrocorynantheine
[13] = 32 mg/kg p.o., dihydrocorynantheine
[14] = 56 mg/kg p.o., dihydrocorynantheine
[15] = 18 mg/kg p.o., ajmalicine hydrochloride
[16] = 40 mg/kg p.o., ajmalicine hydrochloride
[17] = 56 mg/kg p.o., ajmalicine hydrochloride
[18] = 86 mg/kg p.o., ajmalicine hydrochloride
[19] = 100 mg/kg p.o., ajmalicine hydrochloride

CC[C@H]1CN2CCc3c([nH]c4ccccc34)[C@@H]2C[C@@H]1/C(=C\OC)C(=O)OC [DHCN, dihydrocorynantheine]
inhibition in % of CHCl3 arrhythmia (CHCl3 arrhythmia; 10 mg/kg): 0%
inhibition in % of CHCl3 arrhythmia (CHCl3 arrhythmia; 15 mg/kg): 10%
inhibition in % of CHCl3 arrhythmia (CHCl3 arrhythmia; 25 mg/kg): 80%
heart rate at time t ([1]; 10 mg/kg p.o., 10 min.): 504
heart rate at time t ([1]; 10 mg/kg p.o., 20 min.): 515
heart rate at time t ([1]; 10 mg/kg p.o., 40 min.): 500
heart rate at time t ([1]; 10 mg/kg p.o., 80 min.): 516
heart rate at time t ([1]; 10 mg/kg p.o., 2 h.): 521
heart rate at time t ([1]; 10 mg/kg p.o., 4 h.): 517
heart rate at time t ([1]; 10 mg/kg p.o., 6 h.): 507
heart rate change (in words) ([1]; DHCN 10 mg/kg, THCN 10 mg/kg, on the border of statistical significance): an increase is to be observed
heart rate, subsequent value [2, 10]: 485 ± 14 beats/min.
heart rate, Δ [2, 10]: 6 ± 20 beats/min.
heart rate, Δ % [2, 10]: 1.5 ± 4.2%
heart rate, subsequent value [2, 11]: 442 ± 19 beats/min.
heart rate, Δ [2, 11]: -30 ± 18 beats/min.
heart rate, Δ % [2, 11]: -6.2 ± 3.7%
heart rate, subsequent value [2, 12]: 492 ± 12 beats/min.
heart rate, Δ % [2, 12]: -0.6 ± 2.9%
heart rate, subsequent value [2, 13]: 477 ± 5 beats/min.
heart rate, Δ [2, 13]: -16 ± 11 beats/min.
heart rate, Δ % [2, 13]: -3.1 ± 2.2%
heart rate, subsequent value [2, 14]: 502 ± 14 beats/min.
heart rate, Δ [2, 14]: 3 ± 21 beats/min.
heart rate, Δ % [2, 14]: 2.9%
properties influencing the central nervous system (in words) [3]: no properties influencing the central nervous system
toxicities compared (in words) (mice): almost the same
LD50 ([4]; ip): 98 mg/kg
LD50 ([4]; iv): 13 mg/kg
LD50 ([4]; po): 210 mg/kg
percentage decrease of blood pressure ([5]; 10 mg/kg p.o., 10 min.): 10.6%
percentage decrease of blood pressure ([5]; 10 mg/kg p.o., 20 min.): 14.5%
percentage decrease of blood pressure ([5]; 10 mg/kg p.o., 40 min.): 14.5%
percentage decrease of blood pressure ([5]; 10 mg/kg p.o., 80 min.): 6.1%
percentage decrease of blood pressure ([5]; 10 mg/kg p.o., 2 h.): 3.7%
percentage decrease of blood pressure ([5]; 10 mg/kg p.o., 4 h.): 0.8%
percentage decrease of blood pressure ([5]; 10 mg/kg p.o., 6 h.): 1.4%
blood pressure lowering action compared (in words) ([5]; DHCN 10 mg/kg vs THCN 5 mg/kg p.o.): the same action
time of maximum blood pressure lowering ([5]; DHCN 10 mg/kg, THCN 5 mg/kg p.o.): about 40 minutes
blood pressure after the maximum (in words) ([5]; DHCN 10 mg/kg, THCN 5 mg/kg p.o., after about 40 minutes): the blood pressure again increases to the initial value
systolic blood pressure, subsequent value [6, 10]: 187 ± 6 mm Hg
systolic blood pressure, Δ [6, 10]: -12.7 ± 7 mm Hg
systolic blood pressure, Δ % [6, 10]: -5.8 ± 3.3%
systolic blood pressure, subsequent value [6, 11]: 187 ± 5 mm Hg
systolic blood pressure, Δ [6, 11]: -13 ± 9 mm Hg
systolic blood pressure, Δ % [6, 11]: -6.2 ± 4.0%
systolic blood pressure, subsequent value [6, 12]: 181 ± 3 mm Hg
systolic blood pressure, Δ [6, 12]: -21 ± 5 mm Hg
systolic blood pressure, Δ % [6, 12]: -10.1 ± 2.1%
systolic blood pressure, subsequent value [6, 13]: 175 ± 10 mm Hg
systolic blood pressure, Δ [6, 13]: -29 ± 8 mm Hg
systolic blood pressure, Δ % [6, 13]: -14.6 ± 4.1%
systolic blood pressure, subsequent value [6, 14]: 152 ± 6 mm Hg
systolic blood pressure, Δ [6, 14]: -41 ± 5 mm Hg
systolic blood pressure, Δ % [6, 14]: -21.4 ± 2.7%
period and strength of activity compared with ajmalicine (in words) [7]: greater than those of the known comparison compound ajmalicine

COC(=O)C1=CO[C@@H](C)[C@H]2CN3CCc4c([nH]c5ccccc45)[C@@H]3C[C@H]12 [ajmalicine, reference compound]
antiarrhythmic effectiveness, chloroform arrythmias (in words) (CHCl3 arrhythmia): no antiarrythmic effectiveness
inhibition in % of CHCl3 arrhythmia (CHCl3 arrhythmia; 25 mg/kg): 0%
heart rate at time t ([1]; 20 mg/kg, 10 min.): 503
heart rate at time t ([1]; 20 mg/kg, 20 min.): 505
heart rate at time t ([1]; 20 mg/kg, 40 min.): 482
heart rate at time t ([1]; 20 mg/kg, 80 min.): 481
heart rate at time t ([1]; 20 mg/kg, 2 h.): 472
heart rate at time t ([1]; 20 mg/kg, 6 h.): 491
period of activity (in words) (circulatory disturbances): relatively short period of activity
antiarrhythmic effectiveness, aconitine-induced arrythmias (in words) [8]: no antiarrythmic effectiveness
heart rate, subsequent value [2, 15]: 492 ± 27 beats/min.
heart rate, Δ [2, 15]: 30 ± 15 beats/min.
heart rate, Δ % [2, 15]: 7.3 ± 4.3%
heart rate, subsequent value [2, 16]: 513 ± 11 beats/min.
heart rate, Δ [2, 16]: 51 ± 19 beats/min.
heart rate, Δ % [2, 16]: 11.9 ± 4.4%
heart rate, subsequent value [2, 17]: 522 ± 9 beats/min.
heart rate, Δ [2, 17]: 4 beats/min.
heart rate, Δ % [2, 17]: 0.8 ± 1.6%
heart rate, subsequent value [2, 18]: 511 ± 4 beats/min.
heart rate, Δ [2, 18]: 14 ± 2 beats/min.
heart rate, Δ % [2, 18]: 2.9 ± 2.0%
heart rate, subsequent value [2, 19]: 515 ± 9 beats/min.
heart rate, Δ [2, 19]: 26 ± 11 beats/min.
heart rate, Δ % [2, 19]: 5.3%
properties influencing the central nervous system (in words) [3]: no properties influencing the central nervous system
toxicities compared (in words) (mice): almost the same
LD50 ([4]; ip): 90 mg/kg
LD50 ([4]; iv): 14 mg/kg
LD50 ([4]; po): 360 mg/kg
percentage decrease of blood pressure ([5]; 20 mg/kg, 10 min.): 9.5%
percentage decrease of blood pressure ([5]; 20 mg/kg, 20 min.): 13.0%
percentage decrease of blood pressure ([5]; 20 mg/kg, 40 min.): 14.2%
percentage decrease of blood pressure ([5]; 20 mg/kg, 80 min.): 9.8%
percentage decrease of blood pressure ([5]; 20 mg/kg, 2 h.): 5.8%
percentage decrease of blood pressure ([5]; 20 mg/kg, 4 h.): -1.2%
percentage decrease of blood pressure ([5]; 20 mg/kg, 6 h.): -0.5%
heart rate at time t [9]: 499
systolic blood pressure, subsequent value [6, 15]: 198 ± 7 mm Hg
systolic blood pressure, Δ [6, 15]: -12 ± 2 mm Hg
systolic blood pressure, Δ % [6, 15]: -5.6 ± 1%
systolic blood pressure, subsequent value [6, 16]: 173 ± 7 mm Hg
systolic blood pressure, Δ [6, 16]: -25 ± 6 mm Hg
systolic blood pressure, Δ % [6, 16]: -12.4 ± 3%
systolic blood pressure, subsequent value [6, 17]: 172 ± 4 mm Hg
systolic blood pressure, Δ [6, 17]: -37 ± 5 mm Hg
systolic blood pressure, Δ % [6, 17]: -17.5 ± 2.1%
maximum blood pressure lowering ([6]; 56 mg/kg, not exceeded with dosages up to 100 mg/kg): about 18%
systolic blood pressure, subsequent value [6, 18]: 165 ± 11 mm Hg
systolic blood pressure, Δ [6, 18]: -36 ± 12 mm Hg
systolic blood pressure, Δ % [6, 18]: -17.7 ± 6.1%
systolic blood pressure, subsequent value [6, 19]: 165 ± 5 mm Hg
systolic blood pressure, Δ [6, 19]: -33 ± 9 mm Hg
systolic blood pressure, Δ % [6, 19]: -16.3 ± 4%

— patent publication US4528289A, “Corynantheine derivates, processes for their preparation, and their use” (Dr. Willmar Schwabe GmbH & Co., priority 1982, dated 1985)
